Data published in PubChem BioAssay (NCI).
“And” between values parts separate entries of the source, which are not always exact repeats. Equal values may be shown once.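 Interpolation was linear, between the two tested concentrations surrounding the appropriate level; five concentrations were tested over 48 hours in 96-well plates. Here, GI50 denotes the concentration required for 50% inhibition of growth. TGI: concentration producing complete growth inhibition.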

The compounds below were run on OVCAR-8 ovarian (assay: NCI anticancer screen, dose series, 48 h).
Compound `N#CC1C(C#N)C2(c3ccccc3)C(c3ccccc3)=NN(c3ccccc3)CC12` (stereo not drawn) has a TGI of over 100 µM. `COc1cc(Cc2cnc(/N=C3\C(=O)N(CN4CCN(c5c(F)cc6c(=O)c(C(=O)O)cn(C7CC7)c6c5OC)CC4C)c4ccc(F)cc43)nc2N)cc(OC)c1OC` (stereo not drawn) was tested, and the GI50 was 32.1 µM and the TGI was over 100 µM. `C=C(CN1CCN(c2ccc(Cl)cc2F)CC1)c1ccc(C(=O)Nc2ccccc2N)cc1` showed a GI50 of 3.4 µM and a TGI of over 100 µM. `CC(C)=CC(=O)C1c2cccc(O)c2C(=O)c2c(O)cc(C)cc21` (stereo not drawn) showed a TGI of 7.58 µM. In the case of `O=C(Nc1ccccc1)NS(=O)(=O)c1ccc(-n2nc3c(c2-c2cccs2)Cc2ccccc2-3)cc1`, the GI50 is reported as 28.3 µM and the TGI is reported as over 100 µM. `CCCCOC(=O)C1OC(O[C@H]2CCC3(C)C(CCC4(C)C3CC=C3C5CC(C)(C)CCC5(C(=O)O)CC[C@]34C)C2(C)C)C(OC2OC(CO)C(O)C(O)C2O)C(OC2OC(CO)C(O)C(O)C2O)C1O` (stereo partly drawn) gave a GI50 of 66.8 µM and a TGI of over 100 µM. Compound `O=C1C=C(Cl)C(=O)C(c2ccc(Cl)cc2)=C1` has a TGI of 40.7 µM. Compound `Cc1ccc2c(=O)cc(-c3ccc(F)cc3)[nH]c2n1` has a TGI of over 100 µM. `CCOc1ccc(NC(=O)C(=O)CC(=O)c2c[n+](=O)c3cc(C)c(C)cc3n2[O-])cc1` gave a TGI of over 100 µM. Compound `CN1C(=O)C(C)(C)C2(SC(C)(C)C2(C)C)N(C)C1=S` (stereo not drawn) has a TGI of over 100 µM. In the case of `Cn1cc(C2=C(c3cn(C)c4ncccc34)C(=O)NC2=O)c2ccccc21`, the GI50 is reported as 10.1 µM and the TGI is reported as over 25 µM. `O=C1C(Cl)=C(Nc2cccc(Cl)c2)C(=O)N1Cc1ccc(Cl)cc1Cl` showed a GI50 of 0.0603 µM and a TGI of over 36.1 µM. `O=C(/C=C/C12c3ccccc3C(c3ccccc31)C1C(=O)NC(=O)C12)c1ccncc1` (stereo not drawn) was tested, and the GI50 was 2.41 µM and the TGI was 8.2 µM. Compound `CC1(C)CCc2c(c3c(c4c(=O)c(O)c(-c5ccc(O)cc5)oc24)OC(C)(C)CC3)O1` has a GI50 of 36.3 µM and a TGI of over 100 µM. With `CC12CCC(O)CC1CCC1C2CCC2(C)C(C3=CC(=O)OC3)CCC12O` (stereo not drawn) the TGI was 10.1 µM. With `CN/N=C(/Cc1occc(=O)c1O)C(=O)Nc1ccccc1C` the TGI was over 100 µM. `Cc1coc2c1CC1(C)C(CCC(O)C1C)C2` (stereo not drawn) was tested, and the TGI was over 100 µM. `COc1ccc2c(c1)/C(=C/c1c(C)nc3sc(C)nn13)C(=O)N2` gave a GI50 of 6.38 µM and a TGI of over 100 µM. In the case of `Cc1cc(I)cc(CN(C)CCCCN2CCCCC2)c1O`, the GI50 is reported as 36.5 µM and the TGI is reported as over 100 µM. In the case of `O=C(Nc1ccc(Cl)c(Cl)c1)Nc1ccc(Cl)c(Cl)c1`, the GI50 is reported as 3.12 µM and 2.54 µM and the TGI is reported as 14.1 µM and 9.83 µM. Work on `C#Cc1ccc(-n2c(/C=C/c3ccc(C(F)(F)F)cc3)nc3ncccc3c2=O)cc1` yielded a GI50 of 1.87 µM and a TGI of 4.67 µM. Compound `COc1cc(/C=N/NC(=O)c2ccc(C(F)(F)F)nc2Nc2ccc(Cl)cc2C)ccc1O` has a GI50 of 1.6 µM and a TGI of 13.5 µM. In the case of `COc1ccc(C(=O)Cn2c(C(=O)c3ccccc3)nc(-c3ccc(OC)cc3)c2-c2ccc(OC)cc2)cc1`, the GI50 is reported as over 100 µM and the TGI is reported as over 100 µM. Compound `O=C1c2ccccc2C2C1N2C(=O)C(F)(F)F` (stereo not drawn) has a TGI of over 100 µM. Work on `N#CCCN(CCC#N)c1ccc(/C=C2\N=C(c3cc([N+](=O)[O-])ccc3Cl)OC2=O)cc1` yielded a TGI of 37.7 µM. `CSc1nc2c(c(=O)[nH]1)N=C1c3ccccc3C(=O)C1C(c1ccccc1)N2` (stereo not drawn) was tested, and the GI50 was 19.1 µM and the TGI was over 100 µM. Work on `CCOC(=O)[C@]1(OC(C)=O)C[C@H](OC(C)=O)[C@@H](C(F)COP(=O)(OCc2ccccc2)OCc2ccccc2)O1` (stereo partly drawn) yielded a TGI of over 100 µM. With `CC1=C(C(=O)Nc2ccc(Cl)c(Cl)c2)C(c2cccc(Oc3ccccc3)c2)NC(=S)N1` (stereo not drawn) the GI50 was 7.8 µM and the TGI was 16.8 µM. In the case of `c1ccc2cc(-c3cc(-c4cc(-c5ccc6ccccc6c5)on4)no3)ccc2c1`, the TGI is reported as over 100 µM.

What follows are compounds tested on U251 CNS (assay: NCI anticancer screen, dose series, 48 h).
In the case of `N#CC1C(C#N)C2(c3ccccc3)C(c3ccccc3)=NN(c3ccccc3)CC12` (stereo not drawn), the TGI is reported as over 100 µM. Compound `COc1cc(Cc2cnc(/N=C3\C(=O)N(CN4CCN(c5c(F)cc6c(=O)c(C(=O)O)cn(C7CC7)c6c5OC)CC4C)c4ccc(F)cc43)nc2N)cc(OC)c1OC` (stereo not drawn) has a GI50 of 8.79 µM and a TGI of 21 µM. `C=C(CN1CCN(c2ccc(Cl)cc2F)CC1)c1ccc(C(=O)Nc2ccccc2N)cc1` was tested, and the GI50 was 1.8 µM and the TGI was 21.5 µM. `CC(C)=CC(=O)C1c2cccc(O)c2C(=O)c2c(O)cc(C)cc21` (stereo not drawn) showed a TGI of 3.82 µM. `O=C(Nc1ccccc1)NS(=O)(=O)c1ccc(-n2nc3c(c2-c2cccs2)Cc2ccccc2-3)cc1` gave a GI50 of 22.9 µM and a TGI of 55.3 µM. `CCCCOC(=O)C1OC(O[C@H]2CCC3(C)C(CCC4(C)C3CC=C3C5CC(C)(C)CCC5(C(=O)O)CC[C@]34C)C2(C)C)C(OC2OC(CO)C(O)C(O)C2O)C(OC2OC(CO)C(O)C(O)C2O)C1O` (stereo partly drawn) was tested, and the GI50 was 17.9 µM and the TGI was 31.8 µM. Compound `O=C1C=C(Cl)C(=O)C(c2ccc(Cl)cc2)=C1` has a TGI of 30 µM. `Cc1ccc2c(=O)cc(-c3ccc(F)cc3)[nH]c2n1` showed a GI50 of 37.3 µM and a TGI of over 100 µM. With `CCOc1ccc(NC(=O)C(=O)CC(=O)c2c[n+](=O)c3cc(C)c(C)cc3n2[O-])cc1` the TGI was over 100 µM. For `CN1C(=O)C(C)(C)C2(SC(C)(C)C2(C)C)N(C)C1=S` (stereo not drawn), the TGI was over 100 µM. `Cn1cc(C2=C(c3cn(C)c4ncccc34)C(=O)NC2=O)c2ccccc21` showed a GI50 of 7.27 µM and a TGI of over 25 µM. `O=C1C(Cl)=C(Nc2cccc(Cl)c2)C(=O)N1Cc1ccc(Cl)cc1Cl` was tested, and the TGI was 13.7 µM. `O=C(/C=C/C12c3ccccc3C(c3ccccc31)C1C(=O)NC(=O)C12)c1ccncc1` (stereo not drawn) showed a GI50 of 1.62 µM and a TGI of 3.34 µM. For `CC1(C)CCc2c(c3c(c4c(=O)c(O)c(-c5ccc(O)cc5)oc24)OC(C)(C)CC3)O1`, the GI50 was 24.7 µM and the TGI was 65.5 µM. `CC12CCC(O)CC1CCC1C2CCC2(C)C(C3=CC(=O)OC3)CCC12O` (stereo not drawn) showed a TGI of 27.8 µM. Compound `CN/N=C(/Cc1occc(=O)c1O)C(=O)Nc1ccccc1C` has a TGI of over 100 µM. `Cc1coc2c1CC1(C)C(CCC(O)C1C)C2` (stereo not drawn) showed a TGI of over 100 µM. `COc1ccc2c(c1)/C(=C/c1c(C)nc3sc(C)nn13)C(=O)N2` was tested, and the GI50 was 4.08 µM and the TGI was over 100 µM. For `Cc1cc(I)cc(CN(C)CCCCN2CCCCC2)c1O`, the GI50 was 13.7 µM and the TGI was 31.2 µM. For `O=C(Nc1ccc(Cl)c(Cl)c1)Nc1ccc(Cl)c(Cl)c1`, the GI50 was 2.67 µM and 1.77 µM and the TGI was 11.2 µM and 5.14 µM. For `C#Cc1ccc(-n2c(/C=C/c3ccc(C(F)(F)F)cc3)nc3ncccc3c2=O)cc1`, the GI50 was 1.67 µM and the TGI was 3.13 µM. Work on `COc1cc(/C=N/NC(=O)c2ccc(C(F)(F)F)nc2Nc2ccc(Cl)cc2C)ccc1O` yielded a GI50 of 2.09 µM and a TGI of 10.6 µM. In the case of `COc1ccc(C(=O)Cn2c(C(=O)c3ccccc3)nc(-c3ccc(OC)cc3)c2-c2ccc(OC)cc2)cc1`, the GI50 is reported as 64.9 µM and the TGI is reported as over 100 µM. For `O=C1c2ccccc2C2C1N2C(=O)C(F)(F)F` (stereo not drawn), the TGI was over 100 µM. `N#CCCN(CCC#N)c1ccc(/C=C2\N=C(c3cc([N+](=O)[O-])ccc3Cl)OC2=O)cc1` gave a TGI of 32.1 µM. Compound `CSc1nc2c(c(=O)[nH]1)N=C1c3ccccc3C(=O)C1C(c1ccccc1)N2` (stereo not drawn) has a GI50 of 3.52 µM and a TGI of over 100 µM. `CCOC(=O)[C@]1(OC(C)=O)C[C@H](OC(C)=O)[C@@H](C(F)COP(=O)(OCc2ccccc2)OCc2ccccc2)O1` (stereo partly drawn) was tested, and the GI50 was 35.9 µM and > 100 µM and the TGI was over 100 µM. `CC1=C(C(=O)Nc2ccc(Cl)c(Cl)c2)C(c2cccc(Oc3ccccc3)c2)NC(=S)N1` (stereo not drawn) gave a GI50 of 7.84 µM and a TGI of 14.8 µM. Work on `c1ccc2cc(-c3cc(-c4cc(-c5ccc6ccccc6c5)on4)no3)ccc2c1` yielded a TGI of over 100 µM.

These compounds were tested on HCT-15 colon (assay: NCI anticancer screen, dose series, 48 h).
For `N#CC1C(C#N)C2(c3ccccc3)C(c3ccccc3)=NN(c3ccccc3)CC12` (stereo not drawn), the TGI was over 100 µM. For `COc1cc(Cc2cnc(/N=C3\C(=O)N(CN4CCN(c5c(F)cc6c(=O)c(C(=O)O)cn(C7CC7)c6c5OC)CC4C)c4ccc(F)cc43)nc2N)cc(OC)c1OC` (stereo not drawn), the GI50 was 1.35 µM and the TGI was 5.18 µM. In the case of `C=C(CN1CCN(c2ccc(Cl)cc2F)CC1)c1ccc(C(=O)Nc2ccccc2N)cc1`, the GI50 is reported as 2.16 µM and the TGI is reported as over 100 µM. `CC(C)=CC(=O)C1c2cccc(O)c2C(=O)c2c(O)cc(C)cc21` (stereo not drawn) was tested, and the TGI was 10.6 µM. For `O=C(Nc1ccccc1)NS(=O)(=O)c1ccc(-n2nc3c(c2-c2cccs2)Cc2ccccc2-3)cc1`, the GI50 was 16.9 µM and the TGI was 44.7 µM. In the case of `CCCCOC(=O)C1OC(O[C@H]2CCC3(C)C(CCC4(C)C3CC=C3C5CC(C)(C)CCC5(C(=O)O)CC[C@]34C)C2(C)C)C(OC2OC(CO)C(O)C(O)C2O)C(OC2OC(CO)C(O)C(O)C2O)C1O` (stereo partly drawn), the GI50 is reported as 20.9 µM and the TGI is reported as 51 µM. For `O=C1C=C(Cl)C(=O)C(c2ccc(Cl)cc2)=C1`, the TGI was 47.5 µM. `Cc1ccc2c(=O)cc(-c3ccc(F)cc3)[nH]c2n1` showed a TGI of over 100 µM. With `CCOc1ccc(NC(=O)C(=O)CC(=O)c2c[n+](=O)c3cc(C)c(C)cc3n2[O-])cc1` the TGI was over 100 µM. In the case of `CN1C(=O)C(C)(C)C2(SC(C)(C)C2(C)C)N(C)C1=S` (stereo not drawn), the TGI is reported as over 100 µM. `Cn1cc(C2=C(c3cn(C)c4ncccc34)C(=O)NC2=O)c2ccccc21` gave a GI50 of 7.34 µM and a TGI of over 25 µM. `O=C1C(Cl)=C(Nc2cccc(Cl)c2)C(=O)N1Cc1ccc(Cl)cc1Cl` was tested, and the GI50 was 0.0981 µM and the TGI was 8.84 µM. `O=C(/C=C/C12c3ccccc3C(c3ccccc31)C1C(=O)NC(=O)C12)c1ccncc1` (stereo not drawn) showed a GI50 of 1.46 µM and a TGI of 3.94 µM. Compound `CC1(C)CCc2c(c3c(c4c(=O)c(O)c(-c5ccc(O)cc5)oc24)OC(C)(C)CC3)O1` has a GI50 of over 100 µM and a TGI of over 100 µM.
